Data from patent publication US20140323562A1, “THIOSULFINATE ANTIOXIDANTS AND METHODS OF USE THEREOF” (Universition of Ottawa, priority 2011, published 2014).
Like-named read-outs stand apart in the source and are kept apart here. Marks after values point to notes of the source that are not given here.

Legend:
[1] = Oxidation of egg phosphatidylcholine liposomes containing the fluorescent probe H2B-PMHC; details: for effect on oxidation of liposome-embedded H2B-PMHC with one equivalent of NAC: MeOAMVN- or ABAP-mediated, 4.5-15 μM, equivalent amount of NAC, PBS pH 7.4; for inhibition of oxidation of liposome-embedded H2B-PMHC: MeOAMVN-mediated (0.2 mM), compound 1.5-15 μM; for inhibition of oxidation of liposome-embedded H2B-PMHC / radical trapping at the lipid/water interface: no thiol; for efficacy relative to α-TOH in a lipid bilayer: inferred from no effect at 15 μM (100-fold over H2BPMHC); for radical trapping at the lipid/water interface: water-soluble ABAP-mediated oxidation; for effect of increasing equivalents of NAC on inhibited period: 4.5 μM compound, MeOAMVN and ABAP, NAC 1-5 equiv. (9) or 0-4 equiv. (5)
Procedure: FIG. 1 depicts representative fluorescence intensity-time profiles from MeOAMVN-mediated (0.2 mM) oxidations of egg phosphatidylcholine liposomes (1 mM) containing 0.15 μM H2BPMHC and increasing concentrations (1.5, 3.0, 4.5, 6.0, 7.5 and 15 μM) of 1 (A), 2 (B), 5 (C) and 8 (D—15 μM profile not shown); fluorescence (λex=485 nm; λem=520 nm) was recorded every 50 s;
FIG. 2 depicts representative fluorescence intensity-time profiles from MeOAMVN-mediated (0.2 mM, left) and ABAP-mediated (2.7 mM, right) oxidations of egg phosphatidylcholine liposomes (1 mM) containing 0.15 μM H2B-PMHC and either 2 (A, B) or 9 (C, D) at 4.5 μM (black), 7.5 μM (grey) or 15 μM (light grey) in PBS buffer of pH 7.4 containing an equivalent amount of NAC; panels E and F show the effect of NAC only (4.5, 7.5 and 15 μM); fluorescence (λex=485 nm; λem=520 nm) was recorded every 50 s; and
FIG. 3 depicts representative fluorescence-time profiles from MeOAMVN-mediated (0.2 mM, left) and ABAP-mediated (2.7 mM, right) oxidations of egg phosphatidylcholine liposomes (1 mM) containing 0.15 μM H2B-PMHC and either 4.5 μM 9 (A, B) with 1, 2, 3 or 5 equiv. of NAC or 4.5 μM 5 (C, D) with 0, 1, 2 or 4 equiv. of NAC; fluorescence (λex=485 nm; λem=520 nm) was recorded every 50 s.
To shed some light on this issue, the radical-trapping abilities of 1, 2 and 5 have been studied in unilamellar phosphatidylcholine liposomes—convenient models for the lipid bilayers that make up biological membranes. The relative reactivities of the compounds were determined using H2B-PMHC (6), an analog of α-tocopherol (7 or α-TOH, the most biologically-active form of Vitamin E and Nature's premier lipophilic radical-trapping antioxidant) (G. W. Burton, K. U. Ingold, Acc. Chem. Res. 1986, 19, 194-201), which undergoes a significant fluorescence enhancement upon oxidation by two equivalents of peroxyl radical. In the presence of a good radical-trapping antioxidant, the fluorescence onset is suppressed since the radicals are trapped by the compound under investigation in lieu of reacting with H2B-PMHC.
Initial experiments focused on the ability of either 1 or 2 to inhibit the oxidation of liposome-embedded H2B-PMHC by either lipophilic or hydrophilic peroxyl radicals derived from the azo initiators MeOAMVN (N. Noguchi, H. Yamashita, N. Gotoh, Y. Yamamoto, R. Numano, E. Niki, Free Rad. Biol. Med. 1998, 24, 259-268) and ABAP, (L. R. C. Barclay, S. J. Locke, J. M. MacNeil, J. VanKessel, G. W. Burton, K. U. Ingold, J. Am. Chem. Soc. 1984, 106, 2479-2481) respectively. Representative results are shown for MeOAMVN-mediated oxidations in FIG. 1. […] Since the reactivity of H2B-PMHC is essentially the same as that of α-TOH, the efficacy of 1 and 2 must therefore be less than 1/100 that of α-TOH in a lipid bilayer.
The time required to reach maximum fluorescence in the first phase of the plots in FIG. 1 (ca. 400 counts), which we will hereafter refer to as the ‘inhibited period’, reflects the stoichiometry of the reaction of the antioxidant and the peroxyl radicals. […] Chem. Int. Ed. 2009, 48, 157-160; and R. Amorati, P. T. Lynett, L. Valgimigli, D. A. Pratt, Chem. Eur. J. 2012, 18, 6370-6379)

[2] = Decomposition / Cope elimination half-life (HPLC); assay type: physicochemical
Excerpt: The lack of radical-trapping activity of allicin and petivericin obvious from FIGS. 1A and 1B could be due to their partitioning to the aqueous phase, where Cope elimination to produce the reactive sulfenic acids 3 and 4, respectively, is slowed dramatically by H-bonding. (V. Vaidya, K. U. Ingold, D. A. Pratt, Angew. Chem. Int. Ed. 2009, 48, 157-160; P. T. Lynett, K. Butts, V. Vaidya, G. E. Garrett, D. A. Pratt, Org. Biomol. Chem. 2011, 9, 3320-3330; E. Block, Angew. Chem. Int. Ed. Engl. 1992, 31, 1135-1178; and F. Freeman, Y. Kodera, J. Agric. Food Chem. 1995, 43, 2332-2338] However, the half-life for decomposition of allicin in the liposome solutions (determined by HPLC) was extended by only 50% compared to that determined in non-H-bonding organic solvents (˜60 minutes). (V. Vaidya, K. U. Ingold, D. A. Pratt, Angew. Chem. Int. Ed. 2009, 48, 157-160; P. T. Lynett, K. Butts, V. Vaidya, G. E. Garrett, D. A. Pratt, Org. Biomol. Chem. 2011, 9, 3320-3330). This is consistent with a previous report which provides a partition coefficient for allicin in phosphatidylcholine:water of Kp=11 (T. Miron, A. Rabinkov, D. Mirelman, M. Wilchek, L. Weiner, Biochim. Biophys. Acta 2000, 1463, 20-30). The Cope elimination of 3 from petivericin was roughly identical—with a half-life of ˜90 minutes (see Supp. Info.). […]

[3] = chlorobenzene, 37° C., same conditions; cited from earlier work
[4] = Peroxyl radical clock (methyl linoleate oxidation, Z,E:E,E product ratio by HPLC); details: for kinh/kinh (C6BPT): chlorobenzene at 37° C., peroxyl radical clock
Procedure: The kinetics of reaction of p-n-C6H13-BPT with peroxyls was studied using a method based on the peroxyl radical clocks described in Roschek, B.; Tallman, K. A.; Rector, C. L.; Gillmore, J. G.; Pratt, D. A.; Punta, C.; Porter, N. A. J. Org. Chem. 2006, 71, 3527-3532.
Stock solutions of methyl linoleate (“MeLin”) (1.0 M), methoxy 2,2′-Azobis(4-methoxy-2,4-dimethyl valeronitrile) (“MeOAMVN”) (0.1 M), and the thiosulfinates, BPT and p-n-C6H13-BPT 5, were prepared in chlorobenzene. Samples were assembled in 1 mL HPLC autosampler vials with a total reaction volume of 100 μL. Solutions were prepared in the following order to avoid premature oxidation:thiosulfinate (1 mM-7 mM), MeLin (0.10 M) and then MeOAMVN (0.01 M), and diluted to 100 μL with chlorobenzene. The sealed samples were then heated to 37° C. for 2 h. After 2 h, the oxidation was stopped by the addition of butylated hydroxytoluene (“BHT”) (50 μL of 1.0 M solution in hexanes), followed by reduction of the hydroperoxides to alcohols by triphenylphosphine (50 μL of 1 M solution in chlorobenzene). The samples were then diluted to 1 mL with HPLC grade hexanes and analyzed by HPLC (0.5% i-PrOH in hexanes, 1 mL min-1, 40 min, Sun-Fire Silica, 5 mm 4.6×250 mm column, UV detection at 234 nm). The ratio of products (Z,E:E,E) was plotted versus thiosulfinate concentration to derive kH, (Roschek, B.; Tallman, K. A.; Rector, C. L.; Gillmore, J. G.; Pratt, D. A.; Punta, C.; Porter, N. A. J. Org. Chem. 2006, 71, 3527-3532).
The peroxyl radical clock method was used to measure the rate constants for the reaction of a furan-containing thiosulfinate compound (S-(furan-2-ylmethyl) furan-2-ylmethanesulfinothioate) with peroxyl radicals (kinh). The method relies on the competition between the β-fragmentation of a peroxyl radical and its trapping by a H-atom donor. When methyl linoleate is used as a precursor, the reduction of the two initially formed (Z,E)-dienylperoxyl radicals by the antioxidant (A-H in the scheme below) competes with their isomerization to the more thermodynamically stable (E,E)-dienylperoxyl radicals. […]

[5] = going from chlorobenzene to acetonitrile; cited from earlier work
[6] = known from literature under these conditions; cited from earlier work
[7] = radicals generated using MeOAMVN

SMILES: [O-][S+](Cc1ccccc1)SCc1ccccc1 (stereo not shown) [BPT, S-Benzyl phenylmethane thiosulfinate]
- effect on oxidation of liposome-embedded H2B-PMHC with one equivalent of NAC [1]: little effect
- inhibition of oxidation of liposome-embedded H2B-PMHC [1]: neither 1 nor 2 were able to slow the oxidation
- efficacy relative to α-TOH in a lipid bilayer [1]: less than 1/100
- radical trapping at the lipid/water interface [1]: cannot
- half-life ([2]; liposome solutions): ~1.5 h
- kH [3]: 200000 M⁻¹ s⁻¹

SMILES: CC(=O)N[C@@H](CS)C(=O)O [NAC, N-acetylcysteine]
- effect of NAC alone on oxidation ([1]; ABAP-mediated, 4.5, 7.5 and 15 μM): only a modest retarding effect
- effect of NAC alone on oxidation ([1]; MeOAMVN-mediated, 4.5, 7.5 and 15 μM): does little

SMILES: [O-][S+](Cc1ccco1)SCc1ccco1 (stereo not drawn) [S-(furan-2-ylmethyl) furan-2-ylmethanesulfinothioate]
- kinh/kinh (C6BPT) [4]: 1.1

SMILES: C=CCS[S+]([O-])CC=C (stereo not shown) [compound 1, allicin]
- effect on oxidation of liposome-embedded H2B-PMHC with one equivalent of NAC [1]: little effect
- inhibition of oxidation of liposome-embedded H2B-PMHC [1]: neither 1 nor 2 were able to slow the oxidation
- efficacy relative to α-TOH in a lipid bilayer [1]: less than 1/100
- radical trapping at the lipid/water interface [1]: cannot
- extension of half-life for decomposition in liposome solutions compared to non-H-bonding organic solvents ([2]; HPLC): 50%

SMILES: OSC12c3ccccc3C(c3ccccc31)c1ccccc12 [compound 5, 9-triptycenesulfenic acid]
- effect of increasing equivalents of NAC on inhibited period [1]: the inhibited period was extended with increasing concentration of NAC
- inhibition of oxidation of liposome-embedded H2B-PMHC [1]: excellent concentration-dependent radical-trapping activity
- rate of H2B-PMHC oxidation (fluorescence increase) ([1]; MeOAMVN-mediated, in presence of compound): essentially nil
- number of peroxyl radicals trapped (stoichiometry) ([1]; implied from slope relative to 8): one
- slope of inhibited period versus concentration ([1]; radicals generated using AAPH): 10 min/µM
- slope of inhibited period versus concentration [1, 7]: 14 min/µM
- radical trapping at the lipid/water interface [1]: can trap radicals at the lipid/water interface

SMILES: Cc1c(C)c2c(c(C)c1O)CC[C@@](C)(CCC[C@H](C)CCC[C@H](C)CCCC(C)C)O2 [compound 7, α-tocopherol]
- slowing of rate of reaction with peroxyl radicals by H-bond accepting solvent [5]: 20 fold

SMILES: Cc1c(C)c2c(c(C)c1O)CCC(C)(C)O2 [compound 8, PMHC]
- slope of inhibited period versus concentration ([1]; radicals generated using AAPH): 21 min/µM
- slope of inhibited period versus concentration [1, 7]: 31 min/µM
- radical trapping at the lipid/water interface [1]: can trap radicals at the lipid/water interface
- number of peroxyl radicals trapped (stoichiometry) [6]: two

SMILES: CCCCCCc1ccc(CS[S+]([O-])Cc2ccc(CCCCCC)cc2)cc1 (stereo not shown) [compound 9]
- effect of increasing equivalents of NAC on inhibited period [1]: proportionately increased the inhibited period
- effect on oxidation of liposome-embedded H2B-PMHC with one equivalent of NAC [1]: pronounced inhibited period
- inhibition of oxidation of liposome-embedded H2B-PMHC [1]: essentially indistinguishable from those supplemented with allicin and petivericin

SMILES: CCCCCCc1ccc(CS[S+]([O-])Cc2ccc(CCCCCC)cc2)cc1 (stereo not shown) [p-n-C6H13-BPT 5, p-n-C6H13-Benzyl phenylmethane thiosulfinate]
- kinh/kinh (C6BPT) [4]: 1.0^a
- rate constant relative to that of BPT ([4]; chlorobenzene, 37° C., MeLin 0.10 M, MeOAMVN 0.01 M): about 1.6 fold
